Where two headings read alike, the source gives them in different places.
What was measured:
PRMT5/MEP50 complex [1] = target: T1, PRMT5/MEP50 complex (Homo sapiens (Human), UniProt O14744); assay: Flash plate assay; assay type: biochemical
Protocol: Flash plate assay. Compounds were solubilized, and 3-fold diluted in 100% DMSO. […] Standard reactions were performed in a total volume of 30 μl in assay buffer, with 300 nM histone H4 based AcH4-23 (Anaspec: AS-65002) as substrate. To this was added the PRMT5/MEP50 complex diluted to provide a final assay concentration of 2.5 nM and the compounds were allowed to preincubate for 20 minutes at 37° C. The reaction was initiated by adding S-[3H-methyl]-adenosyl-L-methionine (PerkinElmer: NET155001MC) to final concentration of 1 μM. Following a 30 minutes incubation at 37° C., the reaction was stopped by adding 25 μL of 8M Guanidine HCl. Prepare streptavidin YSI SPA beads (Perkinelmer: RPNQ0012) at 0.3 mg/mL in assay buffer. To each reaction, add 150 μL of SPA beads suspension, and incubated while shaking at room temperature for 30 minutes. The plate was centrifuged at 100×g for 30 second before reading in a scintillation counter. IC50 values were determined by fitting the data to the standard 4 parameters with Hill Slope using GraphPad Prism software. This procedure produced the Flash Plate data in Table 7.

PRMT5/MEP50 complex [2] = target: T1, PRMT5/MEP50 complex; assay: HotSpot Assay; assay type: biochemical
Protocol: HotSpot Assay. Compounds were solubilized and 3-fold diluted in 100% DMSO. […] Standard reactions were performed in a total volume of 50 μl in assay buffer, with histone H2A (5 μM final) as substrate. To this was added the PRMT5/MEP50 complex diluted to provide a final assay concentration of 5 nM and the compounds were allowed to preincubate for 15 to 20 minutes at room temperature. The reaction was initiated by adding S-[3H-methyl]-adenosyl-L-methionine (PerkinElmer) to final concentration of 1 μM. Following a 60 minutes incubation at 30° C., the reaction was stopped by adding 100 μL of 20% TCA. Each reaction was spotted onto filter plate (MultiScreen FB Filter Plate, Millipore), and washed 5 times with PBS buffer, Scintillation fluid was added to the filter plate and read in a scintillation counter. IC50 values were determined by fitting the data to the standard 4 parameters with Hill Slope using GraphPad Prism software. This procedure generated the HotSpot data in Table 7.

Granta-519 cells = assay: Cell proliferation assay in Granta-519 cells; assay type: cell-based; conditions: Homo sapiens
Protocol: Granta-519 cells were maintained in PRMI 1640 (Corning Cellgro, Catalog #: 10-040-CV) medium supplemented with 10% v/v FBS (GE Healthcare, Catalog #: SH30910.03). Compounds were dissolved in DMSO to make 10 mM stocks and stored at −20° C. Nine-point, 3-fold serial dilutions were made with DMSO with top concentration at 1 mM (working stocks).
On day of experiment, compound working stocks were further diluted at 1:50 with fresh medium in 96 well plate, and 10 μL of diluted drugs were added to a new 96 well plate for proliferation assay. Cells growing at exponential phase were spun down at 1500 rpm for 4 min and resuspend in fresh medium to reach a density of 0.5×10^6 cells/ml. 200 ul of cells were added to 96 well plate containing diluted drugs and incubated for 3 days. DMSO was used a vehicle control.
On day 3, 10 μL of Cell Counting Kit-8 (CCK-8, Jojindo, CK04-13) solution was added to a new 96 well plate. Cells incubated with drugs for 3 days were resuspended by pipetting up and down, and 100 μL of cells were transferred to 96 well plate containing CCK-8 reagent to measure viable cells. Plates were incubated in CO2 incubator for 2 hours and OD450 values were measured with a microplate reader (iMark microplate reader, Bio-Rad).
For re-plating, compound working stocks were diluted at 1:50 with fresh medium and 10 μL of diluted drugs were added to a new 96 well plate. Cells from Day 3 plate (50 ul) were added to 96 well plate containing fresh drug and additional 150 μL of fresh medium was added to reach 200 μL volume. Plate was returned to CO2 incubator and incubated for 3 more days. Viable cells measurement and re-plating were repeated on day 6, and the final viable cells measurement was taken on day 10.
Percentage of viable cells, relative to DMSO vehicle control, were calculated and plotted in Graphpad Prism ([Inhibitor]vs. normalized response−Variable slope) to determine proliferation IC50 values on day 10.
One day before experiment, Granta-519 cells were passaged to a density of 0.5×10^6 cells/ml. U-87 MG cells were trypsinized and 2,000 cells were seeded into 96-well plates and allow to grow overnight. On the day of experiment (day 0), Granta-519 Cells were spun down at 1,500 rpm for 4 min, resuspended in fresh medium to 0.5×10^6 cells/ml and 190 ul of cells were added to 96 well plates. For U-87 MG cells, old medium was removed and replaced with 190 uL fresh medium. Compound working stocks were first diluted at 1:50 with fresh medium in 96 well plate and 10 μL of diluted drugs were added to 96 well plates containing cells and incubated for 3 days. DMSO was used a vehicle control.
One day 3, 50 uL of Granta-519 cells were transferred to a new 96-well plate and 140 uL fresh medium was added. For U-87 MG cells, old medium was removed and replaced with 190 uL fresh medium. Compound working stocks were freshly diluted at 1:50 with medium and 10 μL of diluted drugs were added to cells and grow for 3 additional days. The same process was repeated on day 6. Cells were allowed to grow for additional 4 days.
On day 10, 100 uL Granta-519 cells were transferred to a new 96 well plate and 10 μL of Cell Counting Kit-8 (CCK-8, Jojindo, CK04-13) solution was added. For U-87 MG cells, old medium was removed and replaced with 100 uL fresh medium and 10 uL CCK-8 solution was added. Plates were incubated in CO2 incubator for 2 hours (Granta-519 cells) or 30 min (U-87 MG cells) and OD450 values were measured with a microplate reader (iMark microplate reader, Bio-Rad). Percentage of viable cells, relative to DMSO vehicle control, were calculated and plotted in Graphpad Prism ([Inhibitor]vs. normalized response−Variable slope) to determine proliferation IC50 values on day 10.
These cell proliferation procedures produced the data in Table 7.

[3] = initial testing, read-out: IC50 (flash plate)
[4] = 240 h, Granta-519, day 10, read-out: Prolif_Granta IC50

T1 sequence (O14744 whole entry): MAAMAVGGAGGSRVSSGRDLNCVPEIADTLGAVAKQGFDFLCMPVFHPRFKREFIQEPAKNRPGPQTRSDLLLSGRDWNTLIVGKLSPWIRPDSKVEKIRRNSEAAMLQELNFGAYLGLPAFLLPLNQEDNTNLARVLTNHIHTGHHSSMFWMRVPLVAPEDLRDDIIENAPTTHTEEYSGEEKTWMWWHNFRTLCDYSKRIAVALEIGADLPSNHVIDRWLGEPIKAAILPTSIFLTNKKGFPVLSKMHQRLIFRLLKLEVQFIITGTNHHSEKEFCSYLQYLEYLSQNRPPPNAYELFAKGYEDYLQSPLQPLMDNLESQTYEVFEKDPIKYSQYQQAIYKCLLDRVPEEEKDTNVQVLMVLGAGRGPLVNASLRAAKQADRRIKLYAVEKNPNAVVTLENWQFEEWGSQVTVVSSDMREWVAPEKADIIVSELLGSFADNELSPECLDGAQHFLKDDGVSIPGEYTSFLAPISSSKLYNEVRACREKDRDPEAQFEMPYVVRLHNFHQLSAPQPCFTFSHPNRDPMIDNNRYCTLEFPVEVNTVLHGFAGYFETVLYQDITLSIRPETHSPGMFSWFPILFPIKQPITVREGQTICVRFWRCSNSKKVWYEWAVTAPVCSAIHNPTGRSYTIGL
T1 sequence (Q9BQA1 whole entry partner): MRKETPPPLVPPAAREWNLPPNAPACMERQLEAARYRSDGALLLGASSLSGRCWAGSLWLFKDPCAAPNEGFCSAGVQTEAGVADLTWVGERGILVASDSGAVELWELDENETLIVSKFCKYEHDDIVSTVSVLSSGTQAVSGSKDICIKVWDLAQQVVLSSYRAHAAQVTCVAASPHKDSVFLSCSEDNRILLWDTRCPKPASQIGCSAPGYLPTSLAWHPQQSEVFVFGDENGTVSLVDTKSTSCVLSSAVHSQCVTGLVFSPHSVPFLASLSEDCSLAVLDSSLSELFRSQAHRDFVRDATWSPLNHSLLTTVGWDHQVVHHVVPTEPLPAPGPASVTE

SMILES	IC50 (PRMT5/MEP50 complex [1]; [3]) [nM]	IC50 (PRMT5/MEP50 complex [1]; read-out: Flash Plate IC50) [nM]	IC50 (PRMT5/MEP50 complex [2]) [nM]	IC50 (Granta-519 cells; [4]) [nM]	IC50 (Granta-519 cells; Granta-519, initial testing, read-out: Prolif_(Granta) IC50) [nM]
C[C@@](O)(c1ccc2c(c1)CC2)[C@H]1O[C@@H](n2ccc3c(N)ncnc32)[C@H](O)[C@@H]1O [Example 1, (2R,3R,4S,5S)-2-(4-amino-7H-pyrrolo[2,3-d]pyrimidin-7-yl)-5-((R)-1-(bicyclo[4.2.0]octa-1(6),2,4-trien-3-yl)-1-hydroxyethyl)tetrahydrofuran-3,4-diol]	6.3	6.2	3	38	28
Cc1ncnc2c1ccn2[C@@H]1O[C@H]([C@H](O)c2ccc3c(c2)CC3)[C@@H](O)[C@H]1O [Example 11, (2R,3S,4R,5R)-2-((R)-bicyclo[4.2.0]octa-1(6),2,4-trien-3-yl(hydroxy)methyl)-5-(4-methyl-7H-pyrrolo[2,3-d]pyrimidin-7-yl)tetrahydrofuran-3,4-diol]	5.9	6.8	3	92	
Nc1ncnc2c1c(F)cn2[C@@H]1O[C@H]([C@H](O)c2ccc3c(c2)CC3)[C@@H](O)[C@H]1O [Example 6, (2R,3R,4S,5R)-2-(4-amino-5-fluoro-7H-pyrrolo[2,3-d]pyrimidin-7-yl)-5-((R)-bicyclo[4.2.0]octa-1(6),2,4-trien-3-yl(hydroxy)methyl)tetrahydrofuran-3,4-diol]		2.8	0.7	67	
Nc1ncnc2c1ccn2[C@@H]1O[C@H]([C@H](O)c2ccc3c(c2)CC3)[C@@H](O)[C@H]1O [Example 2, (2R,3R,4S,5R)-2-(4-amino-7H-pyrrolo[2,3-d]pyrimidin-7-yl)-5-((R)-bicyclo[4.2.0]octa-1(6),2,4-trien-3-yl(hydroxy)methyl)tetrahydrofuran-3,4-diol]	4.2	4.1	2	35	

More lines, main results first:

IC50 (PRMT5/MEP50 complex [1]; [3]) [nM]	IC50 (PRMT5/MEP50 complex [1]; read-out: Flash Plate IC50) [nM]	IC50 (PRMT5/MEP50 complex [2]) [nM]	SMILES	IC50 (Granta-519 cells; [4]) [nM]	IC50 (Granta-519 cells; Granta-519, initial testing, read-out: Prolif_(Granta) IC50) [nM]
	9.3	9	Cc1ncnc2c1ccn2[C@@H]1O[C@H]([C@H](O)c2nc3c(s2)CCC3)[C@@H](O)[C@H]1O [Example 52, (2S,3S,4R,5R)-2-((S)-(5,6-dihydro-4H-cyclopenta[d]thiazol-2-yl)(hydroxy)methyl)-5-(4-methyl-7H-pyrrolo[2,3-d]pyrimidin-7-yl)tetrahydrofuran-3,4-diol]	396	
	37.6		CNc1ncnc2c1ccn2[C@@H]1O[C@H]([C@H](O)c2ccc3c(c2)CC3)[C@@H](O)[C@H]1O [Example 54, (2R,3S,4R,5R)-2-((R)-bicyclo[4.2.0]octa-1(6),2,4-trien-3-yl(hydroxy)methyl)-5-(4-(methylamino)-7H-pyrrolo[2,3-d]pyrimidin-7-yl)tetrahydrofuran-3,4-diol]	1010	
	134	164	OCCc1ncnc2c1ccn2[C@@H]1O[C@H]([C@H](O)c2ccc3c(c2)CC3)[C@@H](O)[C@H]1O [Example 53, (2R,3S,4R,5R)-2-((R)-bicyclo[4.2.0]octa-1,3,5-trien-3-yl(hydroxy)methyl)-5-(4-(2-hydroxyethyl)-7H-pyrrolo[2,3-d]pyrimidin-7-yl)tetrahydrofuran-3,4-diol]	10000	
	20	11	Nc1ncnc2c1c(Br)cn2[C@@H]1O[C@H]([C@H](O)c2ccc3c(c2)CC3)[C@@H](O)[C@H]1O [Example 36, (2R,3R,4S,5R)-2-(4-amino-5-bromo-7H-pyrrolo[2,3-d]pyrimidin-7-yl)-5-((R)-bicyclo[4.2.0]octa-1,3,5-trien-3-yl(hydroxy)methyl)tetrahydrofuran-3,4-diol]	1100	
	17.6		O[C@@H]1[C@H](O)[C@@H]([C@H](O)c2ccc3c(c2)CC3)O[C@H]1n1ccc2c(Cl)ncnc21 [Example 56, (2R,3S,4R,5R)-2-((R)-bicyclo[4.2.0]octa-1(6),2,4-trien-3-yl(hydroxy)methyl)-5-(4-chloro-7H-pyrrolo[2,3-d]pyrimidin-7-yl)tetrahydrofuran-3,4-diol]	50000	
